{"source": "patent US20250281584A1", "about": "“ACTIVE VACCINATION FOR THE TREATMENT OF NGF-RELATED DISORDERS” (priority 2024, published 2025)", "molecules": {"B1": {"name": "canine mature NGF: recombinant canine mature NGF (SEQ ID NO:30) produced in E. coli, with C-terminal GCG motif (SEQ ID NO:31) or His-tag (SEQ ID NO:33) (protein)", "chain": "SSSHPVFHRGEFSVCDSVSVWVGDKTTATDIKGKEVMVLGEVNINNSVFKQYFFETKCRDPTPVDSGCRGIDSKHWNSYCTTTHTFVKALTMDGKQAAWRFIRIDTACVCVLSRKAGRRAG", "modifications": "C-terminal GCG motif or His-tag"}}, "key": {"[1]": {"test": "Thermal shift assay with SYPRO Orange (thermal stability of VLPs)", "format": "physicochemical", "settings": "0.5 mg/ml VLPs in 5 mM Na phosphate, 2 mM EDTA, pH 7.5, real-time PCR system", "experimental": "A thermal shift assay involving temperature-induced denaturation and the fluorescent dye SYPRO® Orange (Sigma, Saint Louis, USA) was used for this purpose. The dye is a naturally quenched in solution but as the VLPs denature with increasing temperatures, SYPRO® Orange interacts with exposed hydrophobic amino acids and cores and emits a fluorescent signal, which is measured by fluorometry. From the resultant melting curve (fluorescent signal vs temperature), the melt peak curves and melting temperature were determined. Solutions containing 0.5 mg/ml of sucrose density gradient purified (as described in Example 1 above) CMV-Ntt830 VLPs or CMV-Ntt830-E4 VLPs in 5 mM Na phosphate, 2 mM EDTA, pH 7.5 were assayed with a real-time PCR system MJ Mini (Bio-Rad, Hercules, USA) using a DNA melting point determination program. Data were analysed using Opticon Monitor Software and melting curves processed at a smooth setting of four."}, "[2]": {"test": "Ionic strength/salt stability of VLPs in NaCl, native agarose gel electrophoresis", "format": "physicochemical", "settings": "NaCl concentrations up to 0.4 M, room temperature, 0.5 mg/ml, pH 7.5", "experimental": "FIG. 12: Stability of CMV-Ntt830 VLPs and CMV-Ntt830-E4 VLPs in solution in the presence of different NaCl concentrations. Samples of CMV-Ntt830 VLPs and CMV-Ntt830-E4 VLPs at 0.5 mg/ml were incubated at room temperature in 5 mM Na phosphate, 2 mM EDTA, pH 7.5 with different concentrations of NaCl (the molar concentration of NaCl in each sample is indicated at the bottom of the gels) for up to 2 hours. Samples were analysed by native agarose gel electrophoresis and ethidium bromide staining. Panels A and B show NAGE analysis of CMV-Ntt830 VLP and CMV-Ntt830-E4 VLPsamples respectively. […] Black arrows indicate the position of loading wells within the gels and location of VLPs within the wells and gels. The presence of CMV-Ntt830 VLPs in the loading wells after electrophoresis (panel A) is due to the formation of VLP aggregates which are too large to enter the gel. Integral unaggreagted VLPs migrated into the gel.\nThe relative stabilities of CMV-Ntt830 VLPs and CMV-Ntt830-E4 VLPs to NaCl were tested by incubating purified VLPs (0.5 mg/ml in 5 mM Na phosphate, 2 mM EDTA, pH 7.5) at room temperature with various NaCl concentrations."}, "[3]": {"test": "Processability of VLPs by anion exchange chromatography (aggregation by NAGE)", "format": "physicochemical", "settings": "DEAE resin, pH 9.0, NaCl elution", "experimental": "To test the processability of prior art CMV-Ntt830 VLPs with anion exchange chromatography (AEX), sucrose gradient purified VLPs were prepared as described in Examples 2-4 of WO2016/062720A1. Five mls of CMV-Ntt830 VLPs (1 mg/ml) were buffer exchanged into 5 mM sodium borate pH 9 and loaded onto a 1.0 ml Macro-Prep DEAE Bio-Rad anion exchange cartridge equilibrated with the same buffer. After the loading step, the concentration of NaCl in the elution buffer was increased in step-wise manner (0.1, 0.2, 0.3, 0.4, 0.5, 0.8., 1.0 and 2.0 M). Fractions were collected and measured at 260 nm using Nanodrop spectrophotometer to measure protein and subjected to native agarose gel electrophoresis (NAGE).\nIn contrast, non-aggregated CMV-Ntt830-E4 VLPs could be readily purified from a crude lysate using AEX. Clarified lysate prepared from E. coli expressing CMV-Ntt830-E4 VLPs (as described in Example 1) in 50 mM citrate, 5 mM Borate buffer pH 9.0 was loaded onto 60 ml of Fracto-DEAE (Merck) in an XK 26/20 column equilibrated with the same buffer and eluted by applying a continuous NaCl gradient from 0 to 1.0 M in the same buffer. The eluate was monitored at A260 nm to measure protein and conductivity measured to monitor salt concentration. The clarified lysate, flow-through and fractions were collected and subjected to NAGE and SDS-PAGE."}, "human beta-NGF": {"biological_target": "human beta-NGF (Homo sapiens, UniProt P01138)", "sequence (P01138 122-241)": "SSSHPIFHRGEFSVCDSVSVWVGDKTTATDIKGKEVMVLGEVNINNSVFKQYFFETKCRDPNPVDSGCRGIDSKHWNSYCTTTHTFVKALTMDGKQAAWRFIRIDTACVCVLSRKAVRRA", "test": "TF-1 cell based NGF neutralization bioassay, kaolin study", "experimental": "(§1) The range of the actual doses of bedinvetmab administered was 0.52-0.97 mg/kg in line with the product information of the marketing authorization. • For the Vaccine group, the dogs received the inventive vaccine candidate, cNGF-CMV-Ntt830-E4 VLP, twice subcutaneously at the back of the neck on day 0 (DO) and day 21 (D21) at the dose of 250 μg VLP-NGF/dog.\nHeat-inactivated (56° C. 30 min), serial-diluted sera or antibody standard (canonized monoclonal anti-canine NGF antibody bedinvetmab, Zoetis) were incubated with 5 ng/mL human beta-NGF for 1 hour at room temperature. The NGF-sera/antibody solution was then added to […] starved overnight of growth factors. Cell viability was quantified over the last 7 hour period of a total 72 hour incubation period using the CellTiter 96 AQueous One Solution Cell Proliferation Assay reagent (Promega). Absorbance was measured using a microplate reader (TecanSpark) at a wavelength of 490 nm and a reference wavelength of 700 nm. Titration curves were generated by plotting the difference in absorbance (490 nm-700 nm) versus the dilution factor of the serum sample. Using a 4-Parameter logistic regression curve fit model the IC50 values, the dilution factor corresponding to half maximum OD values, were determined. Serum titers of samples at different time points were defined and depicted as the IC50 values of the curve fit. […]"}, "canine NGF protein [4]": {"test_system": "canine NGF protein", "test": "NGF total IgG ELISA in dog sera, kaolin study (Example 7)", "format": "in vivo", "settings": "study day 42; vaccine 250 μg s.c. D0 and D21; bedinvetmab s.c. once D35", "experimental": "as §1\nBlood samples for serology were collected at the following time points on DO, D21, D70, D84, D105 and D119 for the Vaccine and the Placebo groups only, on D35 for the Librela® group only, on D42 and on D56 for the three group. Blood samples were centrifuged and the serum decanted into three aliquots per sample.\nNGF- and cNGF-CMV-Ntt830-E4 VLP total specific IgG antibodies in sera were measured by ELISA. ELISA plates were coated with recombinantly produced canine NGF protein (1.0 μg/mL) or cNGF-CMV-Ntt830-E4 VLP (2.0 μg/mL). Serum samples were pre-diluted 1:100, transferred to the ELISA plates and subjected to serial dilutions 3-fold serial dilution steps with a total of 11 dilutions being tested per serum sample. […] Relative concentrations of anti-NGF IgG antibody in the serum (μg/mL) were calculated by multiplying the EC50 values of the serum with the EC50 values determine for the Bedinvetmab standard. […]"}, "[5]": {"settings": "in vivo; cited from earlier work"}, "hNGF binding to TrkA": {"biological_target": "T1, hNGF binding to TrkA (Homo sapiens, UniProt P01138)", "T1 construct": "5 ng/ml human mature NGF (R&D, 256-GF-100/CF); purchased R&D (hNGF); SinoBio (TrkA) 256-GF; 11073-H08H", "T1 sequence (P01138 122-241)": "as above", "test": "TrkA based NGF binding ELISA, ACLT+PMM study", "format": "biochemical", "settings": "day 203, group B, 6 days after administration", "experimental": "ELISA plates were coated with 100 μL/well of 0.5 μg/mL TrkA (SinoBio 11073-H08H) in PBS over night at +4° C. After washing with PBST, plates were blocked using 200 μL/well SuperBlock (ThermoScientific 37518) for 1 hour at room temperature. Serum samples or positive control antibody (caninized monoclonal anti-canine NGF antibody bedinvetmab, Zoetis) were diluted in 2% BSA/PBST and incubated with 1.25 ng/ml hNGF (R&D 256-GF) for 1 hour. After washing the ELISA plates, serum/NGF solution was added to the plates. Plates were incubated for 1 hour at room temperature, washed and HRP-labelled rabbit anti-NGF antibody (SinoBio 11050-RP02-H) at a concentration of 1.5 μg/mL was added. After the plates were washed 4 times with 1×PBS/0.05% (v/v) Tween 20, TMB substrate (ThermoScientific 3401) as the HRP substrate and development reaction was stopped by addition of 2M H2SO4. OD values at 450 nm were measured using a microplate reader (TecanSpark). […] Using a 4-Parameter logistic regression curve fit model the IC50 values, the dilution factor corresponding to half maximum OD 450 nm values, were determined. […] Relative concentrations of neutralizing antibody in the serum (μg/mL) were calculated by multiplying the IC50 values of the serum with the IC50 values determine for the bedinvetmab standard (μg/mL). […]"}, "[6]": {"test_system": "kaolin-induced inflammation in the hind paw", "test": "Kaolin model of acute inflammatory pain, lameness score", "format": "in vivo, dog", "description": "Kaolin-induced inflammation in the hind paw was performed based on the model described in “Paw inflammation model in dogs for preclinical pharmacokinetic/pharmacodynamic investigations of nonsteroidal anti-inflammatory drugs” (Jeunesse et al., 2011, J Pharmacol Exp Ther., 338 (2): 548-58). Briefly, the dogs were anaesthetized with an intravenous administration of propofol (Propovet, 6.5 mg/kg, Zoetis, France) and kaolin was injected subcutaneously on one paw. On D42, the injections were performed on the right hind paw of all dogs.\nLameness score was assessed on a typical course made by each dog using a numerical rating scale initially developed by Giraudel et al. (Giraudel J M et al., 2005, Br J Pharmacol 146:642-653; Giraudel J M et al., 2005, J Vet Pharmacol Ther 28:275-285) on cats and adapted by Jeunesse et al. (Jeunesse et al., 2011, J Pharmacol Exp Ther., 338 (2): 548-58). […] Lameness score was assessed on live and separately on videos by a different operator. […]"}, "canine NGF protein [7]": {"test_system": "canine NGF protein", "test": "NGF total IgG ELISA in dog sera, ACLT+PMM chronic pain study (Example 8)", "format": "in vivo", "settings": "day 203 sera, group B, monthly s.c. administration", "experimental": "NGF- and cNGF-CMV-Ntt830-E4 VLP total specific IgG antibodies in sera were measured by ELISA. ELISA plates were coated with recombinantly produced canine NGF protein (1.0 μg/mL) or cNGF-CMV-Ntt830-E4 VLP (2.0 μg/mL). Serum samples were pre-diluted 1:100, transferred to the ELISA plates and subjected to serial dilutions 3-fold serial dilution steps with a total of 11 dilutions being tested per serum sample. Following incubation, horse-radish peroxidase-(HRP-) labelled goat anti-dog IgG (Jackson ImmunoResearch, cat no 304-035-008, lot 156911) was added. After 2 hours incubation at room temperature, the plates were washed 4 times with 1×PBS/0.05% (v/v) Tween 20. […] Serum titers of samples at different time points were defined and depicted as the EC50 values of the curve fit. Titers below the detection limit of the assay were set to 100 for anti-CMV IgG respectively 50 for anti-NGF IgG, half of the lowest dilution factor (1:200 respectively 1:100) used in the assay. Bedinvetmab was used as a standard in the NGF IgG ELISA. Relative concentrations of anti-NGF IgG antibody in the serum (μg/mL) were calculated by multiplying the EC50 values of the serum with the EC50 values determine for the Bedinvetmab standard. Neutralization titers below the detection limit of the assay were set the equivalent monoclonal antibody concentration of the EC50 value of 50. […]"}, "PC12 cells": {"test_system": "PC12 cells", "test": "Neurite outgrowth bioassay for authenticity of recombinant NGF", "format": "cell-based", "settings": "5 days, 6.25-100 ng/ml NGF", "experimental": "FIG. 15B: PC12 cells were grown for 5 days with recombinant human mature NGF produced in mouse myeloma cells (R&D systems) (black squares) or with canine mature NGF produced in E. coli as described herein (grey circles). Cells were grown in the presence of 100, 50, 25, 12.5 and 6.25 ng/ml of recombinant NGF and the percentage of cells with defined neurite outgrowth determined."}}, "data": [{"molecule": "CMV-Ntt830-E4 VLPs: modified CMV VLP of chimeric CMV polypeptide SEQ ID NO:10, four glutamic acid residues (E4) inserted into CMV-Ntt830", "values": [{"measurement": "melting temperature (melting point)", "setting": "[1]", "result": "~57", "unit": "°C"}, {"measurement": "aggregate formation in presence of NaCl", "setting": "[2]", "result": "no evidence of aggregate formation"}, {"measurement": "aggregated VLPs after anion exchange chromatography (NAGE loading wells)", "setting": "[3]", "result": "no evidence of aggregated VLPs"}]}, {"molecule": "bedinvetmab", "values": [{"measurement": "peak NGF neutralizing titers", "setting": "human beta-NGF; study day 42, study group 1", "result": 3.93, "unit": "µg/mL"}, {"measurement": "dogs with levels below the detection limit of the TF-1-based NGF neutralization assay", "setting": "human beta-NGF; study day 56, 21 days after administration", "result": "6 of 7"}, {"measurement": "NGF-specific IgG GMT (standard equivalent concentration), peak", "setting": "canine NGF protein [4]", "result": 3.68, "unit": "µg/mL"}, {"measurement": "mean titers (dashed line FIG. 24B)", "setting": "[5]", "result": 1, "unit": "µg/mL"}, {"measurement": "peak antibody titer in serum after administration of bedinvetmab", "setting": "[5]", "result": 6.1, "unit": "µg/mL"}, {"measurement": "NGF neutralizing antibody titers", "setting": "hNGF binding to TrkA", "result": 7.85, "unit": "µg/mL"}, {"measurement": "mean AUC for lameness scores", "setting": "[6]; 14 days post kaolin challenge, 7 dogs/group", "result": 15.36}, {"measurement": "NGF-specific IgG GMT", "setting": "canine NGF protein [7]", "result": 10.9, "unit": "µg/mL"}]}, {"molecule": "Cc1cnc(NC(=O)C2=C(O)c3ccccc3S(=O)(=O)N2C)s1", "note": "[Inflacam®, meloxicam]", "values": [{"measurement": "mean lameness score as compared to the Placebo group", "setting": "[6]; one day after kaolin-induced inflammation, 0.2 mg meloxicam/kg s.c. D43", "result": "reduced"}]}, {"molecule": "B1", "values": [{"measurement": "activity at inducing neurite outgrowth compared with commercial mature NGF (R&D systems)", "setting": "PC12 cells", "result": "similarly active"}]}]}
